# Measurements reported in patent publication US11083729B2, “Methods of treating cancer with small molecule NF-κB inhibitors” (ImmuneTarget, Inc., priority 2017, dated 2021).
# Key:
# PBMC [1] = assay: CellTiter-Glo IG50, Example 9 HCC panel, PBMC; format: cell-based; details: 72 hours
# Experimental: (§1) The cells were harvested during the logarithmic growth period and counted. Cell concentrations were adjusted to the appropriate number in appropriate medium and 90 μl cell suspensions were added to 96-well plates. When cells were added, the plates were shaken gently to distribute the cells evenly. Cells were incubated at 37° C. and 5% CO2.
# (§2) 3× serial dilutions of test compound stock solutions with respective solvents were prepared. The stock solutions were diluted with culture medium to generate 10× working solutions of the test compounds. 10 μl of the 10× test compound solutions were added to each well in triplicate for each concentration. Plates were incubated for 72 hours in a humidified incubator at 37° C. and 5% CO2.
# (§3) CellTiter-Glo (CTG) solution was thawed and equilibrated to room temperature. 50 μl of CTG were added to each well and the contents were mixed for 2 minutes on a plate shaker. Cells were incubated for 10 minutes before luminescence signal was recorded using Envision.
# (§4) Cell viability was plotted with GraphPad Prism version 5 and the IG50 was calculated for each cell line. The graphical curves were fitted using a nonlinear regression model with a sigmoidal dose response. IG50 is the concentration of test drug where 100×T/C=50 (the optical density of the test well after a 3-day period of exposure to test drug is T; the control optical density is C).
# (§5) The cells were cultured in an atmosphere of 37° C., 5% CO2 and 95% humidity. All culture media and FBS were purchased from GIBCO, Hyclone or Sigma, USA. The media used for cell culture is described in the table below.
# (§6) Following the cell culture protocol and data analysis methods described in Example 8, the following IG50 results (in μM) were observed: […]
# PLC/PRF/5 [2] = assay: CellTiter-Glo IG50, Example 8, PLC/PRF/5; format: cell-based; details: Homo sapiens, PLC/PRF/5, 72 hours
# Experimental: (§7) Various pancreatic, liver, colon, breast, and stomach cancer cell lines were exposed to the NF-κB inhibitors of the present invention, including, for example, IT-839, IT-843, IT-848, and IT-878, and assessed for IG50 in the CellTiter Glo 2.0 assay.
# as §5, §1, §2, §3, §4
# SNU878 [3] = assay: CellTiter-Glo IG50, Example 9 HCC panel, SNU878; format: cell-based; details: SNU878, 72 hours
# Experimental: as §1, §2, §3, §4, §5, §6
# Hep3B [4] = assay: CellTiter-Glo IG50, Example 10 HCC panel, Hep3B; format: cell-based; details: Homo sapiens, 72 hours
# Experimental: as §1, §2, §3, §4, §5
# (§8) Following the cell culture protocol and data analysis method described in Example 8, the following IG50 results (in μM) were observed: […]
# PBMC [5] = assay: CellTiter-Glo IG50, Example 10 HCC panel, PBMC; format: cell-based; details: 72 hours
# Experimental: as §1, §2, §3, §4, §5, §8
# PLC/PRF/5 [6] = assay: CellTiter-Glo IG50, Example 9 HCC panel, PLC/PRF/5; format: cell-based; details: Homo sapiens, PLC/PRF/5, 72 hours
# Experimental: as §1, §2, §3, §4, §5, §6
# HUH7 [7] = assay: CellTiter-Glo IG50, Example 9 HCC panel, HUH7; format: cell-based; details: Homo sapiens, Huh-7, HUH7, 72 hours
# Experimental: as §1, §2, §3, §4, §5, §6
# Hep3B [8] = assay: CellTiter-Glo IG50, Example 9 HCC panel, Hep3B; format: cell-based; details: Homo sapiens, 72 hours
# Experimental: as §1, §2, §3, §4, §5, §6
# HUH7 [9] = assay: CellTiter-Glo IG50, Example 10 HCC panel, HUH7; format: cell-based; details: Homo sapiens, Huh-7, HUH7, 72 hours
# Experimental: as §1, §2, §3, §4, §5, §8
# Hep3B [10] = assay: CellTiter-Glo IG50, Example 8, Hep3B; format: cell-based; details: Homo sapiens, 72 hours
# Experimental: as §7, §5, §1, §2, §3, §4
# HepG2 [11] = assay: CellTiter-Glo IG50, Example 8, HepG2; format: cell-based; details: Homo sapiens, HepG2, 72 hours
# Experimental: as §7, §5, §1, §2, §3, §4
# JHH5 [12] = assay: CellTiter-Glo IG50, Example 9 HCC panel, JHH5; format: cell-based; details: JHH5, 72 hours
# Experimental: as §1, §2, §3, §4, §5, §6
# JHH5 [13] = assay: CellTiter-Glo IG50, Example 10 HCC panel, JHH5; format: cell-based; details: JHH5, 72 hours
# Experimental: as §1, §2, §3, §4, §5, §8
# HepG2 [14] = assay: CellTiter-Glo IG50, Example 10 HCC panel, HepG2; format: cell-based; details: Homo sapiens, HepG2, 72 hours
# Experimental: as §1, §2, §3, §4, §5, §8
# PLC/PRF/5 [15] = assay: CellTiter-Glo IG50, Example 10 HCC panel, PLC/PRF/5; format: cell-based; details: Homo sapiens, PLC/PRF/5, 72 hours
# Experimental: as §1, §2, §3, §4, §5, §8
# SNU878 [16] = assay: CellTiter-Glo IG50, Example 10 HCC panel, SNU878; format: cell-based; details: SNU878, 72 hours
# Experimental: as §1, §2, §3, §4, §5, §8
# HepG2 [17] = assay: CellTiter-Glo IG50, Example 9 HCC panel, HepG2; format: cell-based; details: Homo sapiens, HepG2, 72 hours
# Experimental: as §1, §2, §3, §4, §5, §6
# c-Rel protein = target: T1, c-Rel protein (Homo sapiens, UniProt Q04864); assay: Electrophoretic Mobility Shift Assay (EMSA), c-Rel binding to CD28RE oligonucleotide; details: 10 nM c-Rel protein
# T1 sequence (Q04864 1-619): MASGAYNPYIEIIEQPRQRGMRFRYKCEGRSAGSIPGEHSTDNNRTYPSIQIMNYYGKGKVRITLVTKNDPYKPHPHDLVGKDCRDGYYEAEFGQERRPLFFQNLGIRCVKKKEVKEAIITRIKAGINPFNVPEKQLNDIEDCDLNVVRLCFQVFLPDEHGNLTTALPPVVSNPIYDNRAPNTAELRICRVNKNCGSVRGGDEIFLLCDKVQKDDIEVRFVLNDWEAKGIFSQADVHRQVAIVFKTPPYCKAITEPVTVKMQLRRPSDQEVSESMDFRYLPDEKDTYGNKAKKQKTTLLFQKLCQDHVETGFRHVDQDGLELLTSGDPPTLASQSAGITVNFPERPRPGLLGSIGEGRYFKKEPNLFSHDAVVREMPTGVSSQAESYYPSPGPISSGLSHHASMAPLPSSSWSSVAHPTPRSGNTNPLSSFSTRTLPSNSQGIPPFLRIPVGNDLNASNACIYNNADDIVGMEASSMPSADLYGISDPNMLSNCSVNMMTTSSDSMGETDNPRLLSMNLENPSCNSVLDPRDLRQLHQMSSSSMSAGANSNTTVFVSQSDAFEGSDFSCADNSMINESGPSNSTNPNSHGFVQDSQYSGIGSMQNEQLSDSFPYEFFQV
# Experimental: DNA binding reaction (20 μL) was carried out in 1×DNA Binding Buffer (10 mM Tris, 40 mM NaCl, 1 mM EDTA, 4% glycerol) with 10 nM c-Rel protein and 0.5 ng phosphor-labeled CD28RE oligonucleotide for 10 minutes at room temperature in 96-well plates. Test compounds, in serial dilutions, were added into each well, and further incubated for 15 minutes before loading onto native 5% polyacrylamide gel. Electrophoresis proceeded for 2.5 hours at 160V. Radioactive signals were quantified using Phospho-Imager. IC50 of compounds of example 1 to 75 were determined by quantifying the intensity of Rel/NF-κB inhibition in EMSA using phospho-imager. An example of EMSA data of the present invention is shown for compound 6 in FIG. 2.
# NF-κB = NF-κB GFP assay in NFκB/Jurkat/GFP transcriptional reporter cells stimulated with TNF-α; format: cell-based; details: Homo sapiens, TNF-α 5 ng/ml, 24 hours, read-out: NF-KB GFP IC50
# Experimental: NFκB/Jurkat/GFP transcriptional reporter cell line was obtained from SBI System Biosciences. NF-κB/Jurkat/GFP™ Reporter cells (5×10^5 cells) were plated at a concentration of 1 million cells/ml into each well of a 24-well plate. TNF-α (5 ng/ml) was added. Compounds were added via serial dilutions to corresponding wells. After 24 hours, 100 μl of the cells were transferred to a well of a Costar® UV plate (96 well, No lid, w/UV Transparent Flat Bottom, Corning, N.Y., Cat #3635) and the intensity of GFP fluorescence was measured (Excitation 485+/−20, Emission 528+/−20) in a Synergy™ HT Multi-Detection Microplate Reader (BioTech, Winooski, Vt.). The intensities of GFP measured were plotted against the […].
# MKN45 = assay: CellTiter-Glo IG50, Example 8, MKN45; format: cell-based; details: Homo sapiens, MKN-45, MKN45, 72 hours
# Experimental: as §7, §5, §1, §2, §3, §4
# MCF-7 = assay: CellTiter-Glo IG50, Example 8, MCF-7; format: cell-based; details: Homo sapiens, MCF7, MCF-7, 72 hours
# Experimental: as §7, §5, §1, §2, §3, §4
# PANC-1 = assay: CellTiter-Glo IG50, Example 8, PANC-1; format: cell-based; details: Homo sapiens, PANC-1, 72 hours
# Experimental: as §7, §5, §1, §2, §3, §4
# HT-29 = assay: CellTiter-Glo IG50, Example 8, HT-29; format: cell-based; details: Homo sapiens, HT-29, 72 hours
# Experimental: as §7, §5, §1, §2, §3, §4
# MIAPACA-2 = assay: CellTiter-Glo IG50, Example 8, MIAPACA-2; format: cell-based; details: Homo sapiens, MIA PaCa-2, MIAPACA-2, 72 hours
# Experimental: as §7, §5, §1, §2, §3, §4
# Capan-1 = assay: CellTiter-Glo IG50, Example 8, Capan-1; format: cell-based; details: Homo sapiens, Capan-1, 72 hours
# Experimental: as §7, §5, §1, §2, §3, §4
# KATO III = assay: CellTiter-Glo IG50, Example 8, KATO III; format: cell-based; details: Homo sapiens, 72 hours
# Experimental: as §7, §5, §1, §2, §3, §4
# HCT116 = assay: CellTiter-Glo IG50, Example 8, HCT116; format: cell-based; details: Homo sapiens, HCT-116, HCT116, 72 hours
# Experimental: as §7, §5, §1, §2, §3, §4
# T47D = assay: CellTiter-Glo IG50, Example 8, T47D; format: cell-based; details: Homo sapiens, 72 hours
# Experimental: as §7, §5, §1, §2, §3, §4
# AGS = assay: CellTiter-Glo IG50, Example 8, AGS; format: cell-based; details: Homo sapiens, 72 hours
# Experimental: as §7, §5, §1, §2, §3, §4
# MDA-MB-231 = assay: CellTiter-Glo IG50, Example 8, MDA-MB-231; format: cell-based; details: Homo sapiens, MDA-MB-231, 72 hours
# Experimental: as §7, §5, §1, §2, §3, §4
# LoVo = assay: CellTiter-Glo IG50, Example 8, LoVo; format: cell-based; details: Homo sapiens, 72 hours
# Experimental: as §7, §5, §1, §2, §3, §4
IC50 (SNU878 [3]),IC50 (Hep3B [4]),IC50 (PLC/PRF/5 [6]),IC50 (HUH7 [7]),IC50 (Hep3B [8]),IC50 (HUH7 [9]),IC50 (Hep3B [10]),IC50 (HepG2 [11]),IC50 (JHH5 [12]),IC50 (JHH5 [13]),IC50 (HepG2 [14]),IC50 (PLC/PRF/5 [15]),IC50 (SNU878 [16]),IC50 (HepG2 [17]),IC50 (c-Rel protein),IC50 (NF-κB),SMILES,IC50 (PBMC [1]),IC50 (PLC/PRF/5 [2]),IC50 (PBMC [5]),other results
12.7 µM,6.42 µM,10.8 µM,6.57 µM,7.57 µM,5.14 µM,7.49 µM,5.14 µM,3.21 µM,7.13 µM,4.37 µM,10.1 µM,10.6 µM,3.15 µM,,,"CNC(=O)c1cc(Oc2ccc(NC(=O)Nc3ccc(Cl)c(C(F)(F)F)c3)cc2)ccn1 [Sorafenib, sorafenib, reference compound]",19.5 µM,10.8 µM,14.4 µM,
,,,,,,,,,,,,,,< 1 µM,8.2 µM,"COc1cc(OC)c2cc3c(=O)[nH]c(=O)nc-3oc2c1 [compound 14, 6,8-dimethoxy-2H-chromeno[2,3-d]pyrimidine-2,4(3H)-dione]",,,,
,,,,,,,,,,,,,,< 5 µM,< 20 µM,O=C(O)CCCCOc1ccc2cc3c(=O)[nH]c(=O)nc-3oc2c1Cl [compound 54],,,,
14.6 µM,6.09 µM,> 16 µM,4.25 µM,3.51 µM,7.72 µM,2.43 µM,6.7 µM,12.9 µM,13.4 µM,9.95 µM,> 16 µM,> 16 µM,5.84 µM,,,CCCCCCOc1ccc2cc3c(=O)[nH]c(=O)nc-3oc2c1Cl [IT-848],1.19 µM,> 16 µM,3.63 µM,IC50 (MKN45): > 16 µM; IC50 (MCF-7): 5.19 µM; IC50 (PANC-1): 9.88 µM; IC50 (HT-29): > 16 µM; IC50 (MIAPACA-2): > 16 µM; IC50 (Capan-1): > 16 µM; IC50 (KATO III): > 16 µM; IC50 (HCT116): > 16 µM; IC50 (T47D): 6.14 µM; IC50 (AGS): 7.67 µM; IC50 (MDA-MB-231): 2.35 µM; IC50 (LoVo): 5.07 µM
